From patent US20050130221A1, “Synthesis for the preparation of compounds for screening as potential tubulin binding agents” (The Australian National University, priority 2001, published 2005)
Where two headings read alike, the source gives them in different places.

Key:
tubulin [1] = tested on: T1, tubulin; assay: Inhibition of [3H]colchicine binding to tubulin; conditions: tubulin 1.0 μM, [3H]colchicine 5.0 μM
T1 construct: other: tubulin 10 μM; extent of assembly measured; asterisk: rate but not ex; tubulin 1.0 μM; [3H]colchicine; [3H]colchicin

[2] = tested on: Burkitt lymphoma CA46 cells; assay: Inhibition of CA46 cell growth; format: cell-based; conditions: Homo sapiens
tubulin [3] = conditions: background statement, literature; cited from earlier work
tubulin [4] = tested on: T1, tubulin; assay: Inhibition of tubulin polymerization; format: biochemical; conditions: tubulin 10 μM; extent of assembly measured; asterisk: rate but not extent inhibited up to 40 μM
[5] = tested on: MCF-7 human breast carcinoma cell line; assay: Inhibition of MCF-7 cell growth; format: cell-based
[6] = CA46, read-out: Inhibition of CA46 cell growth IC50

Row | Compound | Inhibition of colchicine binding (% inhibition), 5 μM inhibitor (tubulin [1]) [%] | IC50 (tubulin [4]) [nM] | melting point [°C] | further results
1 | COc1ccc(/C=C\c2cc(OC)c(OC)c(OC)c2)cc1O [(A), Combretastatin A4, reference compound] | 91 |  |  | IC50 ([2]; Burkitt lymphoma CA46 cells, read-out: Inhibition of CA46 cell growth IC50): 1 nM
2 | COc1ccc2[nH]c(-c3ccc4c(c3)OCO4)c(-c3cc(OC)c(OC)c(OC)c3)c2c1 [(C)] |  |  |  | tubulin binding activity (tubulin [3]): moderate
3 | COc1ccc(-c2oc3cc(O)c(OC)cc3c2-c2cc(OC)c(OC)c(OC)c2)cc1O [(D)] |  |  |  | tubulin binding activity (tubulin [3]): did not exhibit tubulin binding activity
4 | COc1ccc2c(C(O)c3ccc(OC)c(O)c3)c(-c3cc(OC)c(OC)c(OC)c3)sc2c1 (centres unmarked) [BLF-34-3] | 5 | 6100 ± 800 |  | Inhibition of colchicine binding (% inhibition), 50 μM inhibitor (tubulin [1]): 73%; IC50 [2, 6]: > 1000 nM
5 | COc1ccc(-c2sc3cc4c(cc3c2C(=O)c2cc(OC)c(OC)c(OC)c2)OCO4)cc1O [BLF-53-3, 2-(3′-Hydroxy-4′-methoxyphenyl)-5,6-methylendioxy-3-(3″,4″,5″-trimethoxybenzoyl)benzo[b]thiophene] | 2 | > 40000 | 156 to 157 | Inhibition of colchicine binding (% inhibition), 50 μM inhibitor (tubulin [1]): 31%; IC50 [2, 6]: > 1000 nM
6 | COc1ccc2c(-c3cc(OC)c(OC)c(OC)c3)c(-c3ccc(OC)c(O)c3)[nH]c2c1 [BLF-61-3, 6-Methoxy-2-(3-hydroxy-4-methoxyphenyl)-3-(3,4,5-trimethoxyphenyl)indole] |  |  | 98 to 99 | 
7 | COc1ccc2c(C(=O)c3cc(OC)c(OC)c(OC)c3)c(-c3ccc(OC)c(O)c3)oc2c1 [BLF-62-3, 6-Methoxy-2-(3-hydroxy-4-methoxyphenyl)-3-(3,4,5-trimethoxybenzoyl)benzo bifuran] |  |  | 68 to 69 | 
8 | COc1ccc(-c2oc3cc(OC)ccc3c2C(O)c2cc(OC)c(OC)c(OC)c2)cc1 (centres unmarked) [BLF-68-3] |  |  | 53 to 54 | 
9 | COc1ccc2c(C(O)c3cc(OC)c(OC)c(OC)c3)c(-c3ccc(OC)c(O)c3)oc2c1 (stereo not drawn) [BLF-69-3, 6-Methoxy-2-(3-hydroxy-4-methoxyphenyl)-3-[α-hydroxy-α-(3,4,5-trimethoxyphenyl)methyl]benzo[b]furan] |  |  | 68 to 69 | 
10 | COc1ccc(-c2oc3cc(OC)ccc3c2Cc2cc(OC)c(OC)c(OC)c2)cc1 [BLF-70-3, 6-Methoxy-2-(4-methoxyphenyl)-3-(3,4,5-trimethoxybenzyl)benzo[b]furan] |  |  | 121 to 122 | 
11 | COc1ccc2c(C(=O)c3cc(OC)c(OC)c(OC)c3)c(-c3ccc(OC)c(O)c3)sc2c1 [BLF-86-1, 2-(3′-Hydroxy-4′-methoxyphenyl)6-methoxy-3-(3″,4″,5″-trimethoxybenzoyl)benzo[b]thiophene] |  |  | 123 to 125 | 
12 | COc1ccc(-c2sccc2C(=O)c2cc(OC)c(OC)c(OC)c2)cc1O [BLF-89-3] | 67 | 1000 ± 100 | 151 to 152 | IC50 ([5]; MCF7, MCF-7 human breast carcinoma cell line, read-out: Inhibition of cell growth IC50 (MCF-7)): 300 nM
13 | COc1ccc(C2=C(C(=O)c3cc(OC)c(OC)c(OC)c3)C(=O)c3cc(OC)c(OC)c(OC)c32)cc1O [DK-12a-1, 3-(3′-Hydroxy-4′-methoxyphenyl)-4,5,6-trimethoxy-2-(3′,4″,5″-trimethoxybenzoyl)indenone] |  | 10000 to 40000 |  | 
14 | COc1ccc(C2=C(c3cc(OC)c(OC)c(OC)c3)CCS2)cc1OC(C)=O [GPF-60-1, 2-(3′-acetoxy-4′-methoxyphenyl)-4,5-dihydro-3-(3″,4″,5″-trimethoxyphenyl)thiophene] | 64 | 3600 ± 1000 |  | Inhibition of colchicine binding (% inhibition), 50 μM inhibitor (tubulin [1]): 88%; IC50 ([5]; Homo sapiens, MCF7, read-out: Inhibition of cell growth IC50 (MCF-7)): 390 nM
15 | COc1ccc(C(=O)c2cc3cc(O)c(OC)cc3s2)cc1O [KH-2-2, 5-Hydroxy-2-(3′-hydroxy-4′-methoxybenzoyl)-6-methoxybenzo[b]thiophene] |  | 2400 ± 400 |  | 
